Test results published in PubChem BioAssay (NCI).
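Following 48 hours of exposure in 96-well plates, responses at five concentrations were used to interpolate endpoints linearly. Abbreviation: GI50, concentration required for 50% inhibition of growth. TGI: total growth inhibition.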

Key:
Test in all cases: NCI anticancer screen, dose series, 48 h
A549 NSCLC = system: A549 NSCLC
EKVX NSCLC = system: EKVX NSCLC
HS 578T breast = system: HS 578T breast
HT29 colon = system: HT29 colon
OVCAR-4 ovarian = system: OVCAR-4 ovarian
RXF 393 renal = system: RXF 393 renal
SF-295 CNS = system: SF-295 CNS
SK-OV-3 ovarian = system: SK-OV-3 ovarian
U251 CNS = system: U251 CNS
KM12 colon = system: KM12 colon

Compound	GI50 (A549 NSCLC)	TGI (A549 NSCLC)	GI50 (EKVX NSCLC)	TGI (EKVX NSCLC)	GI50 (HS 578T breast)	TGI (HS 578T breast)	GI50 (HT29 colon)	TGI (HT29 colon)	GI50 (OVCAR-4 ovarian)	TGI (OVCAR-4 ovarian)	GI50 (RXF 393 renal)	TGI (RXF 393 renal)	GI50 (SF-295 CNS)	TGI (SF-295 CNS)	GI50 (SK-OV-3 ovarian)	TGI (SK-OV-3 ovarian)	GI50 (U251 CNS)	TGI (U251 CNS)	GI50 (KM12 colon)	TGI (KM12 colon)
CCc1nc2ccc(Cc3ccc(C(=O)NO)cc3)cc2c(=O)n1CCc1ccccc1	1.15 µM	2.99 µM	1.21 µM	3.14 µM	1.59 µM	7.4 µM	0.919 µM	4.5 µM	1.25 µM	6.09 µM	0.741 µM	2.3 µM	1.02 µM	2.6 µM	1.44 µM	2.88 µM	0.963 µM	2.28 µM		
CN(C)CC#Cc1cccc(C(=O)c2cnn(-c3ccc(F)cc3)c2N)c1	> 25 µM	> 25 µM			> 19.1 µM	> 25 µM	> 19.5 µM	> 25 µM	> 17.4 µM	> 25 µM	> 25 µM	> 25 µM	> 20.6 µM	> 25 µM	> 25 µM	> 25 µM	> 25 µM	> 25 µM	> 25 µM	> 25 µM
Cc1cc(S(=O)(=O)NC#N)c(S/C(=N\Nc2ccc([N+](=O)[O-])cc2)c2ccccc2)cc1Cl	18.7 µM	40.8 µM	17.2 µM	34.7 µM	16.2 µM	43.2 µM			13.9 µM	31.8 µM	23.4 µM	48.9 µM	15.9 µM	34 µM	> 100 µM	> 100 µM	14.9 µM	28.1 µM	16.6 µM	30.2 µM
Nc1ncc(-c2ccc(C(F)(F)F)cc2)c(NC2CCCCCC2)n1	16.5 µM	> 100 µM			25.5 µM	> 100 µM	40.6 µM	> 100 µM	16.7 µM	> 100 µM	16.1 µM	88 µM	24.1 µM	> 100 µM	> 100 µM	> 100 µM	20.8 µM	88.9 µM	37.2 µM	> 100 µM
Cc1nn2c(/C=C3/C(=O)Nc4ccccc43)c(-c3ccc(Cl)cc3)nc2s1	16.2 µM	> 50 µM	20.3 µM	> 50 µM	27.7 µM	> 50 µM	11.9 µM	27 µM			14.1 µM	42.8 µM	10.3 µM	31.8 µM			9.73 µM	18.7 µM	16.5 µM	> 50 µM
CCOC(=O)C#Cc1ccc(C#CC(=O)OCC)cc1		> 37.5 µM		> 24.7 µM		29 µM		5.27 µM				16.6 µM		> 32.1 µM		84.2 µM				> 21.2 µM
COc1cc(-c2cc(-c3nc4ccccc4[nH]3)[nH]n2)cc(OC)c1OC	2.43 µM	15.1 µM			6.89 µM	> 100 µM	7.16 µM	51.2 µM	1.26 µM	7.03 µM	1.77 µM	11.4 µM	3.13 µM	14.7 µM	3.48 µM	9.74 µM	3.73 µM	32.6 µM	3.15 µM	11.6 µM
COc1ccc(C(=O)/C=C/c2cc(C(=O)c3cc(OC)c(OC)c(OC)c3)ccc2OC)cc1	> 100 µM	> 100 µM			4.3 µM	> 100 µM					14.7 µM	> 100 µM	6.27 µM	> 100 µM	> 100 µM	> 100 µM	3.11 µM	> 100 µM		
Cn1c2ccc([N+](=O)[O-])cc2c(=O)c2c(O)cc(O)cc21		> 100 µM		> 100 µM		> 100 µM				> 100 µM		52 µM		33.8 µM				37.3 µM		> 100 µM
Cc1nn2c(/C=C3/C(=O)Nc4ccc(Cl)cc43)c(-c3ccccc3)nc2s1	2.25 µM	5.51 µM			2.45 µM	7.79 µM	4.03 µM	13.9 µM	1.66 µM	3.64 µM	1.91 µM	4.71 µM	2.02 µM	5.76 µM	2.25 µM	5.03 µM	1.73 µM	3.71 µM	2.11 µM	5.88 µM
O=C(CNC(=O)c1cccc2ccccc12)Nc1ccccc1Oc1ccccc1	0.459 µM	> 10 µM	0.778 µM	> 10 µM	0.363 µM	> 10 µM	0.29 µM	1.07 µM	4.54 µM	> 10 µM			0.25 µM	> 10 µM	0.398 µM	4.34 µM	0.328 µM	> 10 µM	0.289 µM	> 10 µM
